Experiments:
[1] = test system: visceral nociception (stretching) in mice; test: Murine visceral pain model: stretching in mouse i.p. acetic acid test; assay type: in vivo; details: for MED (minimum dose at which the number of stretches during the observation period is significantly different from saline controls): mouse, s.c. administration, 0.6% acetic acid i.p., 30 min observation; for Potency at inhibiting visceral nociception relative to morphine: mouse i.p. acetic acid test, dose-response relationships
Procedure: Dose-response relationships for the polyamines listed in Table 1 were performed in the mouse i.p. acetic acid test.
Assessment of Candidate Agents in a Murine Visceral Pain Model: There is an extensive literature on visceral pain in the acetic acid mouse model (Bidlack J M, Cohen D J, McLaughlin J P, Lou R, Ye Y, Wentland M P. 8-carboxamidocyclazocine: A long-acting, novel benzomorphan. J Pharmacol Exp Ther. 2002;302:374-380; Reichert J A, Daughters R S, Rivard R, Simone D A. Peripheral and preemptive opioid antinociception in a mouse visceral pain model. Pain. 2001;89:221-227; Farzin D, Asghari L, Nowrouzi M. Rodent antinociception following acute treatment with different histamine receptor agonists and antagonists. Pharmacol Biochem Behav. 2002;72:751-760; Hinschberger A, Butt 5, Lelong V, Boulouard M, Dumuis A, Dauphin F, Bureau R, Pfeiffer B, Renard P, Rault S. New benzo[h][1,6]naphthyridine and azepino[3,2-c]quinoline derivatives as selective antagonists of 5-ht4 receptors: Binding profile and pharmacological characterization. J Med Chem. 2003;46:138-147).
The mice receive either an s.c. or i.p. injection (0.3 mL) of either saline or a test drug at varying doses. Fifteen to thirty minutes following the treatment, the animals receive an i.p. injection of 0.6% acetic acid in saline (sterile, 0.3 mL). The mice are then placed into holding cages and observed for 30 mm. The number of stretches the animals make following the acetic acid injections are counted. A stretch is identified by the animal extending its hind legs well behind its body. This posture is rarely seen in a non-injected animal.

[2] = cited from earlier work

Row | Compound | Effectiveness in the murine visceral pain model (in words) [1] | MED (minimum dose at which the number of stretches during the observation period is significantly different from saline controls) [1] [mg/kg s.c.] | further results
1 | C(CCNC1CCNCC1)CNC1CCNCC1 [PIP(3,4,3), N,N′-bis(4-piperidinyl)-1,4-butanediamine] | less so | – | –
2 | dihydroxydiethylnorspermine [(HO)2DENSPM] | – | 0.0037 | –
3 | CCNCCCN[C@H]1CC[C@H](NCCCNCC)CC1 [CHX(3,4,3)-trans, N,N′-bis[3-(ethylamino)propyl]-trans-1,4-cyclohexanediamine] | – | 0.0037 | Potency at inhibiting visceral nociception relative to morphine [1]: more than three orders of magnitude more potent than morphine
4 | CCNCCCNCCCNCCCNCC [DENSPM, N^1,N^11-diethylnorspermine] | highly effective | 0.37 | –
5 | CCCCNCCCNCCCCNCCCNCCCC [DBSPM, N^1N^11-dibutylspermine] | – | 0.12 | –
6 | CC(C)NCCCNCCCCNCCCNC(C)C [DIPSPM, N^1N^12-diisopropylspermime] | less so | – | –
7 | CN1CC[C@]23c4c5ccc(O)c4O[C@H]2[C@@H](O)C=C[C@H]3[C@H]1C5 [morphine, reference compound] | – | – | Overt cognitive / behavioural effects in mice ([1]; observed during mouse i.p. acetic acid test): produced stereotypical opiate induced hyperactivity and Straub tail
8 | CCNCCCCNCCCCNCCCCNCC [DEHSPM, N^1,N^14-diethylhomospermine] | highly effective | – | Potency at inhibiting visceral nociception relative to morphine [1]: equipotent to morphine; Cognitive effects in human clinical trials [2]: lack of cognitive effects
9 | CCNCCCNCCCCNCCCNCC [DESPM, N^1,N^12-diethylspermine] | less so | – | –

Reference: patent US20050113455A1, “Method and composition for amelioration of pain” (priority 2003, published 2005)
